In ChEMBL document CHEMBL4368926, “Arylpyridines, arylpyrimidines and related compounds as potential modulator agents of the VEGF, hTERT and c-Myc oncogenes” (Bioorg Med Chem, 2019):

Experiments:
[1] = Selectivity index, ratio of IC50 for HEK293 cells to IC50 for human MCF7 cells; conditions: HEK293 cells versus MCF7 cells
HT-29 [2] = experiment: Cytotoxicity against human HT-29 cells assessed as decrease in cell viability after 2 days by MTT assay; assay type: functional, cell-based; conditions: HT-29, 48 h
HT-29 [3] = experiment: Down-regulation of hTERT mRNA expression in human HT-29 cells assessed as hTERT mRNA level at 240 uM after 48 hrs by RT-qPCR analysis (reference value: 100%); assay type: functional
HT-29 [4] = experiment: Down-regulation of VEGFA protein expression in human HT-29 cells assessed as VEGFA protein level at 240 uM after 48 hrs by ELISA (reference value: 100%); assay type: functional
HT-29 [5] = experiment: Down-regulation of c-Myc mRNA expression in human HT-29 cells assessed as c-Myc mRNA level at 240 uM after 48 hrs by RT-qPCR analysis (reference value: 100%); assay type: functional
[6] = Selectivity index, ratio of IC50 for HEK293 cells to IC50 for human HT-29 cells; assay type: toxicity; conditions: HEK293 cells versus HT-29 cells, read-out: Ratio IC50
HT-29 [7] = experiment: Down-regulation of VEGFRA mRNA expression in human HT-29 cells assessed as VEGFRA mRNA level at 240 uM after 48 hrs by RT-qPCR analysis (reference value: 100%); assay type: functional
HT-29 [8] = experiment: Down-regulation of c-Myc protein expression in human HT-29 cells assessed as c-Myc protein level at 240 uM after 48 hrs by ELISA (reference value: 100%); assay type: functional
MCF7 = experiment: Cytotoxicity against human MCF7 cells assessed as decrease in cell viability after 2 days by MTT assay; assay type: functional, cell-based; conditions: MCF7, 48 h
HEK293 = experiment: Cytotoxicity against HEK293 cells assessed as decrease in cell viability after 2 days by MTT assay; assay type: ADME, cell-based; conditions: Homo sapiens, HEK293, 48 h
HT-29 [9] = experiment: Down-regulation of c-Myc mRNA expression in human HT-29 cells assessed as c-Myc mRNA level at 40 uM after 48 hrs by RT-qPCR analysis (reference value: 100%); assay type: functional
HT-29 [10] = experiment: Down-regulation of VEGFRA mRNA expression in human HT-29 cells assessed as VEGFRA mRNA level at 40 uM after 48 hrs by RT-qPCR analysis (reference value: 100%); assay type: functional
HT-29 [11] = experiment: Down-regulation of hTERT mRNA expression in human HT-29 cells assessed as hTERT mRNA level at 40 uM after 48 hrs by RT-qPCR analysis (reference value: 100%); assay type: functional
HT-29 [12] = experiment: Down-regulation of VEGFA protein expression in human HT-29 cells assessed as VEGFA protein level at 40 uM after 48 hrs by ELISA (reference value: 100%); assay type: functional
HT-29 [13] = experiment: Down-regulation of c-Myc protein expression in human HT-29 cells assessed as c-Myc protein level at 40 uM after 48 hrs by ELISA (reference value: 100%); assay type: functional
HT-29 [14] = experiment: Down-regulation of VEGFRA mRNA expression in human HT-29 cells assessed as VEGFRA mRNA level at 80 uM after 48 hrs by RT-qPCR analysis (reference value: 100%); assay type: functional
HT-29 [15] = experiment: Down-regulation of c-Myc mRNA expression in human HT-29 cells assessed as c-Myc mRNA level at 80 uM after 48 hrs by RT-qPCR analysis (reference value: 100%); assay type: functional
HT-29 [16] = experiment: Down-regulation of hTERT mRNA expression in human HT-29 cells assessed as hTERT mRNA level at 80 uM after 48 hrs by RT-qPCR analysis (reference value: 100%); assay type: functional
HT-29 [17] = experiment: Down-regulation of c-Myc protein expression in human HT-29 cells assessed as c-Myc protein level at 80 uM after 48 hrs by ELISA (reference value: 100%); assay type: functional
HT-29 [18] = experiment: Down-regulation of VEGFA protein expression in human HT-29 cells assessed as VEGFA protein level at 80 uM after 48 hrs by ELISA (reference value: 100%); assay type: functional
HT-29 [19] = experiment: Down-regulation of c-Myc protein expression in human HT-29 cells assessed as c-Myc protein level at 100 uM after 48 hrs by ELISA (reference value: 100%); assay type: functional
HT-29 [20] = experiment: Down-regulation of VEGFA protein expression in human HT-29 cells assessed as VEGFA protein level at 100 uM after 48 hrs by ELISA (reference value: 100%); assay type: functional
HT-29 [21] = experiment: Down-regulation of VEGFRA mRNA expression in human HT-29 cells assessed as VEGFRA mRNA level at 100 uM after 48 hrs by RT-qPCR analysis (reference value: 100%); assay type: functional
HT-29 [22] = experiment: Down-regulation of hTERT mRNA expression in human HT-29 cells assessed as hTERT mRNA level at 100 uM after 48 hrs by RT-qPCR analysis (reference value: 100%); assay type: functional
HT-29 [23] = experiment: Down-regulation of c-Myc mRNA expression in human HT-29 cells assessed as c-Myc mRNA level at 100 uM after 48 hrs by RT-qPCR analysis (reference value: 100%); assay type: functional
HT-29 [24] = experiment: Down-regulation of c-Myc mRNA expression in human HT-29 cells assessed as c-Myc mRNA level at 145 uM after 48 hrs by RT-qPCR analysis (reference value: 100%); assay type: functional
HT-29 [25] = experiment: Down-regulation of VEGFRA mRNA expression in human HT-29 cells assessed as VEGFRA mRNA level at 145 uM after 48 hrs by RT-qPCR analysis (reference value: 100%); assay type: functional
HT-29 [26] = experiment: Down-regulation of VEGFA protein expression in human HT-29 cells assessed as VEGFA protein level at 145 uM after 48 hrs by ELISA (reference value: 100%); assay type: functional
HT-29 [27] = experiment: Down-regulation of c-Myc protein expression in human HT-29 cells assessed as c-Myc protein level at 145 uM after 48 hrs by ELISA (reference value: 100%); assay type: functional
HT-29 [28] = experiment: Down-regulation of hTERT mRNA expression in human HT-29 cells assessed as hTERT mRNA level at 145 uM after 48 hrs by RT-qPCR analysis (reference value: 100%); assay type: functional
HT-29 [29] = experiment: Down-regulation of c-Myc protein expression in human HT-29 cells assessed as c-Myc protein level at 10 uM after 48 hrs by ELISA (reference value: 100%); assay type: functional
HT-29 [30] = experiment: Down-regulation of hTERT mRNA expression in human HT-29 cells assessed as hTERT mRNA level at 10 uM after 48 hrs by RT-qPCR analysis (reference value: 100%); assay type: functional
HT-29 [31] = experiment: Down-regulation of VEGFRA mRNA expression in human HT-29 cells assessed as VEGFRA mRNA level at 10 uM after 48 hrs by RT-qPCR analysis (reference value: 100%); assay type: functional
HT-29 [32] = experiment: Down-regulation of c-Myc mRNA expression in human HT-29 cells assessed as c-Myc mRNA level at 10 uM after 48 hrs by RT-qPCR analysis (reference value: 100%); assay type: functional
HT-29 [33] = experiment: Down-regulation of VEGFA protein expression in human HT-29 cells assessed as VEGFA protein level at 10 uM after 48 hrs by ELISA (reference value: 100%); assay type: functional

Compound	selectivity ratio [1]	IC50 (HT-29 [2])	selectivity ratio [6]	IC50 (MCF7)	IC50 (HEK293)	other results
c1ccc(-c2cccnc2)cc1	< 1	> 400 µM	< 1	> 400 µM	321 µM	Activity (HT-29 [3]): 56%; Activity (HT-29 [4]): 42%; Activity (HT-29 [5]): 35%; Activity (HT-29 [7]): 34%; Activity (HT-29 [8]): 60%
COc1ccc(-c2cccnc2)c(OC)c1	< 1	59 µM	2	210 µM	100 µM	Activity (HT-29 [9]): 39%; Activity (HT-29 [10]): 32%; Activity (HT-29 [11]): 28%; Activity (HT-29 [12]): 52%; Activity (HT-29 [13]): 56%
c1ccc(N2CCCCC2)cc1	4	120 µM	5	157 µM	> 400 µM	Activity (HT-29 [14]): 89%; Activity (HT-29 [15]): 52%; Activity (HT-29 [16]): 41%; Activity (HT-29 [17]): 95%; Activity (HT-29 [18]): 75%
Oc1ccccc1-c1ccccn1	57	197 µM	2	7 µM	390 µM	Activity (HT-29 [19]): 62%; Activity (HT-29 [20]): 65%; Activity (HT-29 [21]): 31%; Activity (HT-29 [22]): 36%; Activity (HT-29 [23]): 17%
Oc1ccccc1-c1cccnc1	7	115 µM	2	41 µM	294 µM	Activity (HT-29 [24]): 39%; Activity (HT-29 [25]): 18%; Activity (HT-29 [26]): 96%; Activity (HT-29 [27]): 100%; Activity (HT-29 [28]): 44%
COc1ccc(N2CCCC2)cc1	5	210 µM	3	> 400 µM	350 µM	Activity (HT-29 [19]): 100%; Activity (HT-29 [20]): 79%; Activity (HT-29 [21]): 55%; Activity (HT-29 [22]): 35%; Activity (HT-29 [23]): 79%
COc1cccc(N2CCCCC2)c1	3	26 µM	20	160 µM	> 400 µM	Activity (HT-29 [29]): 100%; Activity (HT-29 [30]): 30%; Activity (HT-29 [31]): 44%; Activity (HT-29 [32]): 63%; Activity (HT-29 [33]): 42%
